Data on 29 compounds can be found in ChEMBL document CHEMBL1155965, “Addressing the malaria drug resistance challenge using flow cytometry to discover new antimalarials” (Bioorg Med Chem Lett, 2009).

Data set [1] relates to Plasmodium falciparum. Briefly: Antimalarial activity against Plasmodium falciparum W2mef at 10 uM after 48 hrs by hoechst 33342-thiazole orange stain based flow cytometry assay. Format: functional. (In flow cytometry, cells or beads pass a laser one at a time.)
Data set [2] relates to Plasmodium falciparum. Briefly: Antimalarial activity against Plasmodium falciparum W2mef assessed as DNA positive erythrocytes by hoechst 33342-thiazole orange stain based flow cytometry assay. It counts as functional, organism-based.
A short description of data set [3]: Cytotoxicity against human erythrocytes assessed as intact cells by propidium iodide stain based flow cytometry. Format: cell-based, Erythrocyte. The note with it: read-out: Activity.
The test system of data set [4] is Plasmodium falciparum. Briefly: Antimalarial activity against Plasmodium falciparum W2mef schizont form by hoechst 33342-thiazole orange stain based flow cytometry assay. Format: functional, organism-based.
Data set [5] can be described thus: Cytotoxicity against human erythrocytes assessed as change in cell shape by flow cytometry. Format: cell-based. The note with it: erythrocyte.
Data set [6] relates to Plasmodium falciparum. Briefly: Antimalarial activity against Plasmodium falciparum W2mef ring form by hoechst 33342-thiazole orange stain based flow cytometry assay. Format: functional, organism-based.
Data set [7] can be described thus: Cytotoxicity against human erythrocytes assessed as change in internal complexity by flow cytometry. It counts as cell-based. The note with it: erythrocyte.
The subject of data set [8] is Plasmodium falciparum. Briefly: Antimalarial activity against Plasmodium falciparum W2mef trophozoite form by hoechst 33342-thiazole orange stain based flow cytometry assay. It counts as functional, organism-based.
Data set [9] concerns Plasmodium falciparum. Briefly: microbe, parasite or virus in culture. The following applies: W2mef.
Description: Antimalarial activity against Plasmodium falciparum W2mef by hypoxanthine uptake assay

Bounds are passed on as bounds.

As usually defined, the inhibition is the percentage by which the read-out fell short of the control. For the compound `CCN(CC)C(=O)[C@@]1(c2ccccc2)C[C@H]1CNC(=O)O[C@@H]1O[C@H](C(=O)OC)[C@@H](O)[C@H](O)[C@H]1O`, testing at 10 µM in data set [1] gave an inhibition of 3.16%.

The compound `Clc1ccc(C2(c3ccc4noc(-c5cccc(Cl)c5)c4c3)OCCO2)cc1` returned an inhibition at 10 µM in data set [1] of 54.5%.

On to `Cn1cnc(C[S+]([O-])Cc2ccc(I)cc2)c1` (centres undefined), for which the inhibition at 10 µM in data set [1] came to 6.31%.

Usually IC50 stands for the midpoint of a concentration-inhibition curve. In the case of `Cc1cc(C#N)cc(C)c1Oc1nc(Nc2ccc(C#N)cc2)nc(N)c1Br` [ETRAVIRINE], the IC50 amounted to 506 nM in [2], 716 nM in data set [4], 409 nM in [6] and 726 nM in data set [8]. Moreover, in [3], the viability was > 98.5%. In addition, in [1], testing at 10 µM gave an inhibition of 91.7%. The Activity entry in [5] and in data set [7] was “Non-toxic” throughout.

In [1], `Cn1cncc1CSCc1ccc(I)cc1` yielded an inhibition at 10 µM of 41.9%.

Compound `Cc1ccc(-c2nc3c(Br)cc4c(c3[nH]2)C(=O)NC(=O)C4(C)C)cc1[N+](=O)[O-]` yielded an inhibition at 10 µM in data set [1] of 11.2%.

Take `C[C@@H]1CC[C@H]2[C@@H](C)C(=O)O[C@@H]3O[C@@]4(C)CC[C@@H]1[C@]32OO4` [ARTEMISININ]: the IC50 in [2] was 11 nM; in [4], 8 nM; in data set [6], 20 nM; in data set [8], 7 nM; in data set [9], 12 nM.

In data set [1], `Cn1cnc(CSCc2ccccc2)c1` displayed an inhibition at 10 µM of 42.1%.

As to `Cc1cc(O)cc(C)c1CN1CCc2ccccc2C1`, 10 µM produced 6.76% inhibition in data set [1].

Take `OC(c1cc(C(F)(F)F)nc2c(C(F)(F)F)cccc12)C1CCCCN1` (centres undefined) [MEFLOQUINE]: the IC50 in [4] worked out at 44 nM; in [6], 147 nM; in [8] it was 74 nM; in data set [9], 142 nM.

In data set [1], `Oc1c(F)cc(CN2CCc3ccccc3C2)cc1F` had an inhibition at 10 µM of 8.47%.

With `Ic1ccc(CSCc2c[nH]cn2)cc1`, at 10 µM the inhibition in data set [1] was 37.1%.

`N#Cc1ccc(Nc2nc(O)cc(O)n2)cc1` gave an inhibition at 10 µM in [1] of 1.46%.

Take `Cc1cc(/C=C/C#N)cc(C)c1Nc1ccnc(Nc2ccc(C#N)cc2)n1` [RILPIVIRINE]: the IC50 in data set [2] is 1100 nM; in data set [4], 1210 nM; in data set [6], 1200 nM; in [8] it was 2000 nM. This compound also came in with an inhibition at 10 µM in data set [1] of 49.8%.

The compound `COc1cc2ncn(-c3sc(C(N)=O)cc3OCc3ccccc3C(F)(F)F)c2cc1OC` displayed an inhibition at 10 µM in [1] of 24.6%.

For the compound `C/C(O)=C(\C#N)C(=O)Nc1ccc(C(F)(F)F)cc1` [TERIFLUNOMIDE], 10 µM produced 4.96% inhibition in [1].

In the case of `Oc1ccc(C(O)C2CCc3ccccc3C2)cc1` (centres undefined), the inhibition at 10 µM in [1] was determined as 14.6%.

Consider `Cn1cnc(CSCc2ccc(I)cc2)c1`, for which the IC50 in data set [2] was found to be 3770 nM; in data set [4], 2000 nM; in [6], 1080 nM; in [8], 16600 nM. This compound also came in with an inhibition at 10 µM in data set [1] of 74.9%.

In the case of `O=C(Cc1ccc(O)cc1)N1CCc2ccccc2C1`, in data set [1], the inhibition at 10 µM stood at 1.1%.

As to `Cc1[nH]c(/C=C2\C(=O)Nc3ccc(S(=O)(=O)N(C)c4cccc(Cl)c4)cc32)c(C)c1C(=O)N1CCN(C)CC1`, the IC50 in data set [2] came out at 320 nM; in [4], 317 nM; in data set [6], 228 nM; in data set [8], 620 nM. In data set [1], this compound showed an inhibition at 10 µM of 85.1%.

As to `Cn1cc(-c2[nH]c3cc(N)cc4c3c2C=NNC4=O)cn1`, in data set [1], 10 µM produced 9.17% inhibition.

In data set [1], `O=S(=O)(c1ccccc1)C(CCCn1ccnc1)c1ccc(I)cc1` (centres undefined) had an inhibition at 10 µM of 3.46%.

Regarding `COC(=O)c1cn2nc[nH]c(=O)c2c1C`, testing at 10 µM in data set [1] gave an inhibition of 9.62%.

Turning to `Fc1cccc(-c2nc3ccncc3[nH]2)c1F`, in [1], the inhibition at 10 µM came out at 14.4%.

In turn, `O=C(NCCc1c[nH]cn1)/C(Cc1ccccc1)=N\O` returned an inhibition at 10 µM in data set [1] of 2.61%.

In data set [1], `CC(C)C1=NN=CC1C1CC2CCC(C1)N2` (centres undefined) gave an inhibition at 10 µM of 0%.

As to `O=C(c1ccc(Cl)cc1)c1ccc2[nH]c(=O)cc(-c3cccc(Cl)c3)c2c1`, the inhibition at 10 µM in data set [1] stood at 36.1%.

Regarding `CNC(=O)c1cc(Oc2ccc(NC(=O)Nc3ccc(Cl)c(C(F)(F)F)c3)cc2)ccn1` [SORAFENIB], the IC50 was found to be 384 nM in data set [2], 376 nM in data set [4], 328 nM in data set [6] and 509 nM in data set [8]. Further, in [1], the inhibition at 10 µM is 87.5%.

Consider `Cc1cc(I)ccc1Nc1c(C(=O)N2CCNCC2)cc2nc[nH]c2c1F`, for which the inhibition at 10 µM in data set [1] is 0.25%.
